Test system: yeast genes (expressed mRNA)
Experiment: DNA chip measurement of expressed mRNA of yeast genes after culture with a toxic chemical substance
Assay type: cell-based, Saccharomyces cerevisiae S288C
Description: Yeast (Saccharomyces cerevisiae S288C (a SUC2mal mel gap2 CUP1)) were cultured at 25° C. on YPD medium (yeast extract 1%, polypeptone 2%, glucose 2%). One of toxic chemical substances was added to the cell at logarithmic growth phase, and the cell was further cultured for two hours. Cell was cultured without any chemical substance in the same condition, and was used as a control. Concentrations of the chemical substances were defined to inhibit the growth of the yeast but not lead to death.
After the completion of cultivation, the culture was centrifuged to collect the cells. To the cells, sodium acetate buffer (50 mM sodium acetate, 10 mM EDTA, 1% SDS) was added, and the mixture was shaken at 65° C. for five minutes, followed by returning to room temperature, and obtaining the supernatant, which procedure was repeated two times. To the supernatant, ½ amount of a solution of phenol/chloroform (1:1) was added, and the mixture was centrifuged to give a supernatant, an equal amount of chloroform was added, and the mixture was centrifuged to give a supernatant. To the supernatant, an equal amount of isopropanol containing 0.3 M sodium acetate was added, and the mixture was allowed to stand at room temperature for 30 minutes, after which the mixture was centrifuged to give sediment of the whole RNAs. Seventy % ethanol was added to the sediment, and the mixture was again centrifuged to give sediment, which was then dried and dissolved in water. mRNA was isolated from the whole RNAs as followings. In view of the fact that a poly A chain is attached to the 3′ terminus of mRNA, a polynucleotide having a poly T structure which was immobilized on the surface of latex beads was used to trap the mRNA, and then the mRNA was washed and eluted with spine column (Oligotex-dT30<Super>mRNA Purification Kit, Takara). Reverse transcription of the mRNA was conducted with a reverse transcriptase (Super Script II Reverse Transcriptase; catalogue No. 18064-014, GibcoBRL) using fluorescence-labeled nucleotides to give cDNAs that were introduced with Cy3-dUTP or Cy5-dUTP during the reverse transcription.
The labeled cDNAs were dissolved in TE buffer (10 mM Tris-HCl/1 mM EDTA, pH 8.0), and the solution was dropped on the DNA chip containing the whole genes of yeast (DNA Chip Research Inc. Japan) so that the cDNAs were hybridized on the DNA chip at 65° C. for over 12 hours. The fluoresces intensity of the DNA chip was read with a scanner, and the ratio relative to the fluorescence intensity resulting from the absence of chemical substance was estimated as the following, which is shown in Tables 1 to 9.
In the Tables, “Intensity” indicated in the rightmost column is a value of the level of expressed mRNA of each gene in control cells as divided by the average level of the expressions of the whole genes. A gene of which mRNA level is lower in control, and is higher in cases of addition of chemical substance, is especially useful in the detection of toxic substances.
Here, when a ratio of an amount of mRNA expressed in the presence of the chemical substance to an amount of mRNA expressed in the absence of the chemical substance is two or more, then it is considered significant.

SMILES: O=[N+]([O-])c1cc[n+]([O-])c2ccccc12 [(5), 4-Nitroquinoline-N-oxide]
- The level of expressed mRNA in the presence of chemical substance/The level of expressed mRNA in the absence of chemical substance (yeast gene YAL053W, cultured two hours with substance): 0.8
- The level of expressed mRNA in the presence of chemical substance/The level of expressed mRNA in the absence of chemical substance (yeast gene YBL048W, cultured two hours with substance): 1.3
- The level of expressed mRNA in the presence of chemical substance/The level of expressed mRNA in the absence of chemical substance (yeast gene YBL107C, cultured two hours with substance): 1.2
- The level of expressed mRNA in the presence of chemical substance/The level of expressed mRNA in the absence of chemical substance (yeast gene YDL072C, cultured two hours with substance): 1.4
- The level of expressed mRNA in the presence of chemical substance/The level of expressed mRNA in the absence of chemical substance (yeast gene YDL204W, cultured two hours with substance): 1.0
- The level of expressed mRNA in the presence of chemical substance/The level of expressed mRNA in the absence of chemical substance (yeast gene YDL222C, cultured two hours with substance): 1.0
- The level of expressed mRNA in the presence of chemical substance/The level of expressed mRNA in the absence of chemical substance (yeast gene YDR003W, cultured two hours with substance): 1.8
- The level of expressed mRNA in the presence of chemical substance/The level of expressed mRNA in the absence of chemical substance (yeast gene YDR330W, cultured two hours with substance): 1.2
- The level of expressed mRNA in the presence of chemical substance/The level of expressed mRNA in the absence of chemical substance (yeast gene YDR357C, cultured two hours with substance): 2.0
- The level of expressed mRNA in the presence of chemical substance/The level of expressed mRNA in the absence of chemical substance (yeast gene YDR391C, cultured two hours with substance): 1.2
- The level of expressed mRNA in the presence of chemical substance/The level of expressed mRNA in the absence of chemical substance (yeast gene YDR411C, cultured two hours with substance): 1.6
- The level of expressed mRNA in the presence of chemical substance/The level of expressed mRNA in the absence of chemical substance (yeast gene YDR511W, cultured two hours with substance): 1.0
- The level of expressed mRNA in the presence of chemical substance/The level of expressed mRNA in the absence of chemical substance (yeast gene YDR531W, cultured two hours with substance): 2.0
- The level of expressed mRNA in the presence of chemical substance/The level of expressed mRNA in the absence of chemical substance (yeast gene YDR539W, cultured two hours with substance): 1.8
- The level of expressed mRNA in the presence of chemical substance/The level of expressed mRNA in the absence of chemical substance (yeast gene YDR545W, cultured two hours with substance): 1.4
- The level of expressed mRNA in the presence of chemical substance/The level of expressed mRNA in the absence of chemical substance (yeast gene YEL001C, cultured two hours with substance): 0.9
- The level of expressed mRNA in the presence of chemical substance/The level of expressed mRNA in the absence of chemical substance (yeast gene YER004W, cultured two hours with substance): 1.5
- The level of expressed mRNA in the presence of chemical substance/The level of expressed mRNA in the absence of chemical substance (yeast gene YER035W, cultured two hours with substance): 1.5
- The level of expressed mRNA in the presence of chemical substance/The level of expressed mRNA in the absence of chemical substance (yeast gene YER044C, cultured two hours with substance): 1.8
- The level of expressed mRNA in the presence of chemical substance/The level of expressed mRNA in the absence of chemical substance (yeast gene YER079W, cultured two hours with substance): 0.8
- The level of expressed mRNA in the presence of chemical substance/The level of expressed mRNA in the absence of chemical substance (yeast gene YER106W, cultured two hours with substance): 1.6
- The level of expressed mRNA in the presence of chemical substance/The level of expressed mRNA in the absence of chemical substance (yeast gene YER158C, cultured two hours with substance): 0.8
- The level of expressed mRNA in the presence of chemical substance/The level of expressed mRNA in the absence of chemical substance (yeast gene YER163C, cultured two hours with substance): 0.8
- The level of expressed mRNA in the presence of chemical substance/The level of expressed mRNA in the absence of chemical substance (yeast gene YER175C, cultured two hours with substance): 0.9
- The level of expressed mRNA in the presence of chemical substance/The level of expressed mRNA in the absence of chemical substance (yeast gene YFL006W, cultured two hours with substance): 1.4
- The level of expressed mRNA in the presence of chemical substance/The level of expressed mRNA in the absence of chemical substance (yeast gene YFL010C, cultured two hours with substance): 1.3
- The level of expressed mRNA in the presence of chemical substance/The level of expressed mRNA in the absence of chemical substance (yeast gene YFL024C, cultured two hours with substance): 1.1
- The level of expressed mRNA in the presence of chemical substance/The level of expressed mRNA in the absence of chemical substance (yeast gene YFL032W, cultured two hours with substance): 0.9
- The level of expressed mRNA in the presence of chemical substance/The level of expressed mRNA in the absence of chemical substance (yeast gene YGL037C, cultured two hours with substance): 0.9
- The level of expressed mRNA in the presence of chemical substance/The level of expressed mRNA in the absence of chemical substance (yeast gene YGL047W, cultured two hours with substance): 1.3
- The level of expressed mRNA in the presence of chemical substance/The level of expressed mRNA in the absence of chemical substance (yeast gene YGL053W, cultured two hours with substance): 2.0
- The level of expressed mRNA in the presence of chemical substance/The level of expressed mRNA in the absence of chemical substance (yeast gene YGL121C, cultured two hours with substance): 0.9
- The level of expressed mRNA in the presence of chemical substance/The level of expressed mRNA in the absence of chemical substance (yeast gene YGL199C, cultured two hours with substance): 0.7
- The level of expressed mRNA in the presence of chemical substance/The level of expressed mRNA in the absence of chemical substance (yeast gene YGR101W, cultured two hours with substance): 1.2
- The level of expressed mRNA in the presence of chemical substance/The level of expressed mRNA in the absence of chemical substance (yeast gene YGR110W, cultured two hours with substance): 0.9
- The level of expressed mRNA in the presence of chemical substance/The level of expressed mRNA in the absence of chemical substance (yeast gene YGR130C, cultured two hours with substance): 1.4
- The level of expressed mRNA in the presence of chemical substance/The level of expressed mRNA in the absence of chemical substance (yeast gene YGR154C, cultured two hours with substance): 1.2
- The level of expressed mRNA in the presence of chemical substance/The level of expressed mRNA in the absence of chemical substance (yeast gene YGR221C, cultured two hours with substance): 0.9
- The level of expressed mRNA in the presence of chemical substance/The level of expressed mRNA in the absence of chemical substance (yeast gene YHR053C (detoxification protein gene)): 2.9
- The level of expressed mRNA in the presence of chemical substance/The level of expressed mRNA in the absence of chemical substance (yeast gene YHR055C (detoxification protein gene)): 2.7
- The level of expressed mRNA in the presence of chemical substance/The level of expressed mRNA in the absence of chemical substance (yeast gene YHR136C): 2.4
- The level of expressed mRNA in the presence of chemical substance/The level of expressed mRNA in the absence of chemical substance (yeast gene YHR138C, cultured two hours with substance): 1.5
- The level of expressed mRNA in the presence of chemical substance/The level of expressed mRNA in the absence of chemical substance (yeast gene YHR199C, cultured two hours with substance): 1.2
- The level of expressed mRNA in the presence of chemical substance/The level of expressed mRNA in the absence of chemical substance (yeast gene YHR209W, cultured two hours with substance): 1.8
- The level of expressed mRNA in the presence of chemical substance/The level of expressed mRNA in the absence of chemical substance (yeast gene YIL023C, cultured two hours with substance): 1.3
- The level of expressed mRNA in the presence of chemical substance/The level of expressed mRNA in the absence of chemical substance (yeast gene YIL041W, cultured two hours with substance): 0.5
- The level of expressed mRNA in the presence of chemical substance/The level of expressed mRNA in the absence of chemical substance (yeast gene YIL087C, cultured two hours with substance): 1.4
- The level of expressed mRNA in the presence of chemical substance/The level of expressed mRNA in the absence of chemical substance (yeast gene YJL057C, cultured two hours with substance): 1.5
- The level of expressed mRNA in the presence of chemical substance/The level of expressed mRNA in the absence of chemical substance (yeast gene YJL066C, cultured two hours with substance): 0.8
- The level of expressed mRNA in the presence of chemical substance/The level of expressed mRNA in the absence of chemical substance (yeast gene YJL082W, cultured two hours with substance): 1.7
- The level of expressed mRNA in the presence of chemical substance/The level of expressed mRNA in the absence of chemical substance (yeast gene YJL151C, cultured two hours with substance): 1.3
- The level of expressed mRNA in the presence of chemical substance/The level of expressed mRNA in the absence of chemical substance (yeast gene YJL152W, cultured two hours with substance): 1.6
- The level of expressed mRNA in the presence of chemical substance/The level of expressed mRNA in the absence of chemical substance (yeast gene YJL161W, cultured two hours with substance): 1.1
- The level of expressed mRNA in the presence of chemical substance/The level of expressed mRNA in the absence of chemical substance (yeast gene YJL171C, cultured two hours with substance): 1.0
- The level of expressed mRNA in the presence of chemical substance/The level of expressed mRNA in the absence of chemical substance (yeast gene YJR008W, cultured two hours with substance): 1.4
- The level of expressed mRNA in the presence of chemical substance/The level of expressed mRNA in the absence of chemical substance (yeast gene YJR054W, cultured two hours with substance): 1.0
- The level of expressed mRNA in the presence of chemical substance/The level of expressed mRNA in the absence of chemical substance (yeast gene YKL071W, cultured two hours with substance): 1.1
